# Test results taken from ChEMBL document CHEMBL4219163, “Discovery of 2,6-disubstituted pyrazine derivatives as inhibitors of CK2 and PIM kinases” (Bioorg Med Chem Lett, 2018).
# Experiments:
# [1] = Cmax in Wistar Han rat at 3 mg/kg, iv or 10 mg/kg, po; assay type: ADME, organism-based; settings: in vivo
# [2] = Oral bioavailability in Wistar Han rat at 10 mg/kg; assay type: ADME, organism-based; settings: in vivo
# [3] = Half life in Wistar Han rat at 3 mg/kg, iv; assay type: ADME, organism-based; settings: in vivo
# [4] = Clearance in Wistar Han rat at 3 mg/kg, iv; assay type: ADME, organism-based; settings: in vivo
# [5] = Volume of distribution at steady state in Wistar Han rat at 3 mg/kg, iv or 10 mg/kg, po; assay type: ADME, organism-based; settings: in vivo, read-out: Vdss
# [6] = AUC (0 to t) in Wistar Han rat at 3 mg/kg, iv or 10 mg/kg, po; assay type: ADME, organism-based; settings: in vivo
# [7] = Lipophilicity, log D of the compound; assay type: physicochemical; settings: octanol/water
Compound,Cmax [1],bioavailability [2],half-life [3],clearance [4],Vd [5],AUC(0-t) [6],logD [7]
CC(C)Nc1ccc2ccn(-c3cncc(-c4ccc(C(=O)O)cc4)n3)c2c1,2900 nM,80%,60 min,56 mL/min/kg,1.8 L/kg,5.5 µM·h,
CC(C)Nc1ccc2cnn(-c3cncc(-c4ccc(C(=O)O)cc4)n3)c2c1,830 nM,24%,426 min,19 mL/min/kg,1 L/kg,5.5 µM·h,1.06
